In patent US4372961A, “Derivatives of rifamycins, their preparation and pharmaceutical compositions thereof” (priority 1980, dated 1983):
In brackets after ≈: the same amount, converted by molar mass.

Test system: Staphylococcus aureus
Experiment: antibiotic activity (MIC) on Staphylococcus aureus
Format: cell-based

Work on `CO[C@H]1/C=C/O[C@@]2(C)Oc3c(C)c(O)c4c(O)c(c(/C=N/N5CCN(C)CC5)c(O)c4c3C2=O)NC(=O)/C(C)=C\C=C\[C@H](C)[C@H](O)[C@@H](C)[C@@H](O)[C@@H](C)[C@H](OC(C)=O)[C@@H]1C` [rifampicin] yielded an MIC of ~0.01 µg/mL (≈ 0.0122 µM).
